According to the OligoGym collection:
HELM strings list units from the 5' end as sugar, base in round brackets, then linkage (d deoxyribose, r ribose, m 2'-O-methyl, p phosphodiester). Strings are as the collection lists them; they lack the last nucleoside at the 3' end of the tested compound. [moe] = 2'-O-(2-methoxyethyl) (MOE); [sp] = phosphorothioate linkage; [m5C] = 5-methylcytosine

Target: GFAP
Experiment: mouse, dose not given
Conditions: ASO

Substance	3 h FOB score
RNA1{[moe](T)[sp].[moe](T)p.[moe](T)p.[moe](A)p.d(T)[sp].d(T)[sp].d(T)[sp].d(T)[sp].d(T)[sp].d([m5C])[sp].d([m5C])[sp].d(T)[sp].d([m5C])[sp].d(A)[sp].[moe](G)p.[moe]([m5C])p.[moe](G)p.[moe](A)[sp].[moe]([m5C])}$$$$ (last 3' nucleoside missing)	0 score 0-7
RNA1{[moe](G)[sp].[moe](G)p.[moe]([m5C])p.[moe](A)p.[moe](G)p.d(T)[sp].d(A)[sp].d(T)[sp].d(T)[sp].d(A)[sp].d([m5C])[sp].d([m5C])[sp].d(T)[sp].d([m5C])[sp].d(T)[sp].[moe](A)p.[moe]([m5C])p.[moe](T)[sp].[moe](A)}$$$$ (last 3' nucleoside missing)	3 score 0-7
RNA1{[moe](G)[sp].[moe]([m5C])p.[moe](A)p.[moe](G)p.[moe](T)p.[moe](A)p.d(T)[sp].d(T)[sp].d(A)[sp].d([m5C])[sp].d([m5C])[sp].d(T)[sp].d([m5C])[sp].d(T)[sp].d(A)[sp].d([m5C])[sp].[moe](T)p.[moe](A)[sp].[moe](G)}$$$$ (last 3' nucleoside missing)	0 score 0-7
RNA1{[moe](G)[sp].[moe](T)p.[moe]([m5C])p.[moe](A)p.[moe](G)[sp].d([m5C])[sp].d([m5C])[sp].d(T)[sp].d(G)[sp].d(G)[sp].d(T)[sp].d(T)[sp].d(A)[sp].d(G)[sp].d([m5C])[sp].[moe]([m5C])p.[moe](T)p.[moe](T)[sp].[moe](T)}$$$$ (last 3' nucleoside missing)	6 score 0-7
RNA1{[moe](T)[sp].[moe](T)p.[moe](G)p.[moe](G)p.[moe](T)p.d(G)[sp].d([m5C])[sp].d(T)[sp].d(T)[sp].d(T)[sp].d(T)[sp].d(G)[sp].d([m5C])[sp].d([m5C])[sp].d([m5C])[sp].[moe]([m5C])p.[moe]([m5C])p.[moe](T)[sp].[moe](G)}$$$$ (last 3' nucleoside missing)	0 score 0-7
RNA1{[moe]([m5C])[sp].[moe](A)p.[moe]([m5C])p.[moe](G)p.[moe](T)p.d([m5C])[sp].d(A)[sp].d([m5C])[sp].d(A)[sp].d(T)[sp].d(T)[sp].d([m5C])[sp].d(A)[sp].d([m5C])[sp].d(T)[sp].[moe](A)p.[moe](A)p.[moe](T)[sp].[moe](A)}$$$$ (last 3' nucleoside missing)	0 score 0-7
RNA1{[moe](T)[sp].[moe]([m5C])p.[moe](A)p.[moe]([m5C])p.[moe](A)[sp].d([m5C])[sp].d(T)[sp].d([m5C])[sp].d([m5C])[sp].d(T)[sp].d([m5C])[sp].d(A)[sp].d(G)[sp].d([m5C])[sp].d(T)[sp].[moe](A)p.[moe](G)p.[moe](G)[sp].[moe](T)}$$$$ (last 3' nucleoside missing)	1 score 0-7
RNA1{[moe](G)[sp].[moe](G)p.[moe](A)p.[moe](G)p.[moe](A)[sp].d(A)[sp].d(G)[sp].d(G)[sp].d(T)[sp].d([m5C])[sp].d(T)[sp].d(G)[sp].d([m5C])[sp].d(A)[sp].d([m5C])[sp].[moe](G)p.[moe](G)p.[moe](G)[sp].[moe](A)}$$$$ (last 3' nucleoside missing)	7 score 0-7
RNA1{[moe](T)[sp].[moe](T)p.[moe](G)p.[moe](G)p.[moe]([m5C])p.[moe](A)p.d(G)[sp].d(T)[sp].d(A)[sp].d(T)[sp].d(T)[sp].d(A)[sp].d([m5C])[sp].d([m5C])[sp].d(T)[sp].d([m5C])[sp].[moe](T)p.[moe](A)[sp].[moe]([m5C])}$$$$ (last 3' nucleoside missing)	0 score 0-7
RNA1{[moe](T)[sp].[moe]([m5C])p.[moe](T)p.[moe](G)p.[moe]([m5C])[sp].d(T)[sp].d([m5C])[sp].d(G)[sp].d(G)[sp].d(G)[sp].d([m5C])[sp].d([m5C])[sp].d([m5C])[sp].d([m5C])[sp].d(T)[sp].[moe]([m5C])p.[moe](A)p.[moe](T)[sp].[moe](G)}$$$$ (last 3' nucleoside missing)	2 score 0-7
RNA1{[moe](G)[sp].[moe](T)p.[moe]([m5C])p.[moe](A)p.[moe]([m5C])[sp].d(A)[sp].d(T)[sp].d(T)[sp].d([m5C])[sp].d(A)[sp].d([m5C])[sp].d(T)[sp].d(A)[sp].[moe](A)p.[moe](T)p.[moe](A)[sp].[moe](T)}$$$$ (last 3' nucleoside missing)	0 score 0-7
RNA1{[moe](T)[sp].[moe](G)p.[moe]([m5C])p.[moe](T)p.[moe](T)[sp].d(T)[sp].d(T)[sp].d(G)[sp].d([m5C])[sp].d([m5C])[sp].d([m5C])[sp].d([m5C])[sp].d([m5C])[sp].d(T)[sp].d([m5C])[sp].[moe](G)p.[moe](A)p.[moe](A)[sp].[moe](T)}$$$$ (last 3' nucleoside missing)	4 score 0-7
RNA1{[moe](T)[sp].[moe]([m5C])p.[moe](T)p.[moe]([m5C])p.[moe](A)[sp].d(G)[sp].d(T)[sp].d(T)[sp].d(T)[sp].d(T)[sp].d([m5C])[sp].d([m5C])[sp].d(T)[sp].d([m5C])[sp].d([m5C])[sp].[moe](A)p.[moe](G)p.[moe]([m5C])[sp].[moe](A)}$$$$ (last 3' nucleoside missing)	4 score 0-7
RNA1{[moe](T)[sp].[moe](A)p.[moe]([m5C])p.[moe](A)p.[moe](T)[sp].d([m5C])[sp].d([m5C])[sp].d([m5C])[sp].d([m5C])[sp].d(T)[sp].d(T)[sp].d(T)[sp].d([m5C])[sp].d(T)[sp].d([m5C])[sp].[moe](T)p.[moe]([m5C])p.[moe]([m5C])[sp].[moe](T)}$$$$ (last 3' nucleoside missing)	1 score 0-7
RNA1{[moe](A)[sp].[moe]([m5C])p.[moe](T)p.[moe](A)p.[moe](G)p.d(T)[sp].d([m5C])[sp].d(A)[sp].d(G)[sp].d([m5C])[sp].d([m5C])[sp].d(T)[sp].d(G)[sp].d(G)[sp].d(T)[sp].[moe](T)p.[moe](A)p.[moe](G)[sp].[moe]([m5C])}$$$$ (last 3' nucleoside missing)	2 score 0-7
RNA1{[moe]([m5C])[sp].[moe](A)p.[moe](G)p.[moe]([m5C])p.d([m5C])[sp].d(T)[sp].d(G)[sp].d(G)[sp].d(T)[sp].d(T)[sp].d(A)[sp].d(G)[sp].d([m5C])[sp].d([m5C])[sp].[moe](T)p.[moe](T)p.[moe](T)p.[moe]([m5C])[sp].[moe](T)}$$$$ (last 3' nucleoside missing)	4 score 0-7
RNA1{[moe]([m5C])[sp].[moe](T)p.[moe](G)p.[moe]([m5C])p.[moe]([m5C])p.[moe](A)p.d(T)[sp].d(T)[sp].d(T)[sp].d(A)[sp].d(T)[sp].d([m5C])[sp].d(T)[sp].d(G)[sp].d(T)[sp].d(G)[sp].[moe]([m5C])p.[moe](T)[sp].[moe](T)}$$$$ (last 3' nucleoside missing)	1 score 0-7
RNA1{[moe](T)[sp].[moe](G)p.[moe](G)p.[moe]([m5C])p.[moe](A)p.d(G)[sp].d(T)[sp].d(A)[sp].d(T)[sp].d(T)[sp].d(A)[sp].d([m5C])[sp].d([m5C])[sp].d(T)[sp].d([m5C])[sp].[moe](T)p.[moe](A)p.[moe]([m5C])[sp].[moe](T)}$$$$ (last 3' nucleoside missing)	1 score 0-7
RNA1{[moe](T)[sp].[moe]([m5C])p.[moe](T)p.[moe](G)p.[moe]([m5C])[sp].d([m5C])[sp].d(A)[sp].d(T)[sp].d(T)[sp].d(T)[sp].d(A)[sp].d(T)[sp].d([m5C])[sp].[moe](T)p.[moe](G)p.[moe](T)[sp].[moe](G)}$$$$ (last 3' nucleoside missing)	3 score 0-7
RNA1{[moe](A)[sp].[moe]([m5C])p.[moe](A)p.[moe](G)p.[moe](T)p.d(T)[sp].d([m5C])[sp].d([m5C])[sp].d([m5C])[sp].d(A)[sp].d(G)[sp].d(A)[sp].d(T)[sp].d(A)[sp].d([m5C])[sp].[moe](T)p.[moe]([m5C])p.[moe]([m5C])[sp].[moe](G)}$$$$ (last 3' nucleoside missing)	2 score 0-7
RNA1{[moe]([m5C])[sp].[moe](G)p.[moe](T)p.[moe]([m5C])p.[moe](A)[sp].d([m5C])[sp].d(A)[sp].d(T)[sp].d(T)[sp].d([m5C])[sp].d(A)[sp].d([m5C])[sp].d(T)[sp].[moe](A)p.[moe](A)p.[moe](T)[sp].[moe](A)}$$$$ (last 3' nucleoside missing)	0 score 0-7
RNA1{[moe](T)[sp].[moe](G)p.[moe](A)p.[moe](G)p.[moe](A)[sp].d(T)[sp].d(A)[sp].d(T)[sp].d([m5C])[sp].d(T)[sp].d(T)[sp].d(G)[sp].d(T)[sp].d(G)[sp].d(A)[sp].[moe]([m5C])p.[moe]([m5C])p.[moe](T)[sp].[moe](T)}$$$$ (last 3' nucleoside missing)	6 score 0-7
RNA1{[moe](G)[sp].[moe](G)p.[moe]([m5C])p.[moe](A)p.[moe]([m5C])[sp].d(A)[sp].d(G)[sp].d(T)[sp].d(T)[sp].d([m5C])[sp].d([m5C])[sp].d([m5C])[sp].d(A)[sp].d(G)[sp].d(A)[sp].[moe](T)p.[moe](A)p.[moe]([m5C])[sp].[moe](T)}$$$$ (last 3' nucleoside missing)	5 score 0-7
RNA1{[moe](G)[sp].[moe](T)p.[moe](G)p.[moe]([m5C])p.[moe](T)[sp].d(G)[sp].d(A)[sp].d(G)[sp].d(A)[sp].d(A)[sp].d(T)[sp].d([m5C])[sp].d(A)[sp].d(A)[sp].d(G)[sp].[moe]([m5C])p.[moe](T)p.[moe]([m5C])[sp].[moe]([m5C])}$$$$ (last 3' nucleoside missing)	0 score 0-7
RNA1{[moe](T)[sp].[moe](G)p.[moe](T)p.[moe](A)p.[moe](T)p.d(T)[sp].d(A)[sp].d(G)[sp].d(G)[sp].d(A)[sp].d(T)[sp].d([m5C])[sp].d([m5C])[sp].d([m5C])[sp].d(A)[sp].[moe](T)p.[moe]([m5C])p.[moe](T)[sp].[moe](A)}$$$$ (last 3' nucleoside missing)	4 score 0-7
RNA1{[moe](G)[sp].[moe](G)p.[moe](T)p.[moe](A)p.[moe](T)[sp].d(G)[sp].d(A)[sp].d(T)[sp].d(A)[sp].d(G)[sp].d(G)[sp].d([m5C])[sp].d(T)[sp].d([m5C])[sp].d(T)[sp].[moe](G)p.[moe](G)p.[moe]([m5C])[sp].[moe](T)}$$$$ (last 3' nucleoside missing)	5 score 0-7
